This assay has as its system BDF1 mice, s.c. Lewis lung carcinoma, T/C %. Description: NCI In Vivo Anticancer Drug Screen. Data for tumor model Lewis Lung Carcinoma (subcutaneous) in B6D2F1 (BDF1) mice. The method in brief: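 Readout: survival or tumor size, expressed as treated (T) over vehicle control (C). Transplantable tumor implanted in mice; compound given to the treated group.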

“And” between values parts separate entries of the source, which are not always exact repeats. Equal values may be shown once. Inconclusive results are not listed.

On to `[N-]=[N+]=CC(=O)NCC(=O)NN`, for which the T/C reads like this: (endpoint: mean tumor weight, dose: 125.0 mg/kg/injection, schedule: Q01DX011 (ip), vehicle: water, higher = larger tumour) 95 % of control; (endpoint: mean tumor weight, dose: 250.0 mg/kg/injection, schedule: Q01DX011 (ip), vehicle: water, higher = larger tumour) 66 % of control; (endpoint: mean tumor weight, dose: 500.0 mg/kg/injection, schedule: Q01DX011 (ip), vehicle: water, higher = larger tumour) 40 % of control.
As for `CCc1ccc(NC(=O)N(CCCl)N=O)cc1`, the T/C reads like this: (endpoint: median survival time, dose: 1.9 mg/kg/injection, schedule: Q01DX009 (ip), vehicle: Klucel (hydroxypropylcellulose) (HPC), higher = longer survival) 108 % of control; (endpoint: median survival time, dose: 7.5 mg/kg/injection, schedule: Q01DX009 (ip), vehicle: Klucel (hydroxypropylcellulose) (HPC), higher = longer survival) 98 % of control; (endpoint: median survival time, dose: 15.0 mg/kg/injection, schedule: Q01DX009 (ip), vehicle: Klucel (hydroxypropylcellulose) (HPC), higher = longer survival) 95 % of control.
Consider `CC(C)Sc1nc(N)nc2nc[nH]c12`, for which the T/C (endpoint: mean tumor weight, dose: 12.5 mg/kg/injection, schedule: Q01DX011 (ip), vehicle: other, higher = larger tumour) is 75 % of control; the T/C (endpoint: mean tumor weight, dose: 25.0 mg/kg/injection, schedule: Q01DX011 (ip), vehicle: other, higher = larger tumour) was 95 % of control; the T/C (endpoint: mean tumor weight, dose: 50.0 mg/kg/injection, schedule: Q01DX011 (ip), vehicle: other, higher = larger tumour) is 67 % of control; the T/C (endpoint: mean tumor weight, dose: 100.0 mg/kg/injection, schedule: Q01DX011 (ip), vehicle: other, higher = larger tumour) is 48 % of control and 62 % of control; the T/C (endpoint: mean tumor weight, dose: 200.0 mg/kg/injection, schedule: Q01DX011 (ip), vehicle: other, higher = larger tumour) is 52 % of control; the T/C (endpoint: mean tumor weight, dose: 400.0 mg/kg/injection, schedule: Q01DX011 (ip), vehicle: other, higher = larger tumour) is 30 % of control.
As for `C[C@]12C=CC(=O)C=C1CC[C@@H]1[C@@H]2CC[C@]2(C)OC(=O)CC[C@@H]12`, the T/C (endpoint: mean tumor weight, dose: 12.5 mg/kg/injection, schedule: Q01DX011 (sc), vehicle: steriod suspending solution, higher = larger tumour) is 75 % of control; the T/C (endpoint: mean tumor weight, dose: 25.0 mg/kg/injection, schedule: Q01DX011 (sc), vehicle: steriod suspending solution, higher = larger tumour) was 102 % of control; the T/C (endpoint: mean tumor weight, dose: 50.0 mg/kg/injection, schedule: Q01DX011 (sc), vehicle: steriod suspending solution, higher = larger tumour) was 53 % of control; the T/C (endpoint: mean tumor weight, dose: 100.0 mg/kg/injection, schedule: Q01DX011 (sc), vehicle: steriod suspending solution, higher = larger tumour) is 97 % of control.
`CCCCCCC(=O)O[C@H]1CC[C@H]2[C@@H]3CCC4=CC(=O)CC[C@]4(C)[C@H]3CC[C@]12C`: the T/C is 73 % of control (endpoint: mean tumor weight (est.), dose: 10.0 mg/kg/injection, schedule: Q01DX009 (ip), vehicle: water, higher = larger tumour); 111 % of control (endpoint: mean tumor weight (est.), dose: 20.0 mg/kg/injection, schedule: Q01DX009 (ip), vehicle: water, higher = larger tumour); 52 % of control (endpoint: mean tumor weight (est.), dose: 40.0 mg/kg/injection, schedule: Q01DX009 (ip), vehicle: water, higher = larger tumour); 93 % of control (endpoint: mean tumor weight (est.), dose: 80.0 mg/kg/injection, schedule: Q01DX009 (ip), vehicle: water, higher = larger tumour); 115 % of control (endpoint: median survival time, dose: 10.0 mg/kg/injection, schedule: Q01DX009 (ip), vehicle: water, higher = longer survival); 101 % of control (endpoint: median survival time, dose: 80.0 mg/kg/injection, schedule: Q01DX009 (ip), vehicle: water, higher = longer survival).
For the compound `O=c1[nH]cc(N(CCCl)CCCl)c(=O)[nH]1`, the T/C runs as follows: (endpoint: mean tumor weight, dose: 0.37 mg/kg/injection, schedule: Q01DX011 (ip), vehicle: carboxymethylcellulose (CMC), higher = larger tumour) 70 % of control; (endpoint: mean tumor weight, dose: 0.57 mg/kg/injection, schedule: Q01DX011 (ip), vehicle: carboxymethylcellulose (CMC), higher = larger tumour) 59 % of control; (endpoint: mean tumor weight, dose: 0.85 mg/kg/injection, schedule: Q01DX011 (ip), vehicle: carboxymethylcellulose (CMC), higher = larger tumour) 38 % of control.
For the compound `O=C(CP(=O)(O)O)NC(CC(=O)OCc1ccccc1)C(=O)OCc1ccccc1` (stereo not given), the T/C (endpoint: median survival time, dose: 50.0 mg/kg/injection, schedule: Q01DX004 (ip), vehicle: saline, higher = longer survival) was 114 % of control and 120 % of control; the T/C (endpoint: median survival time, dose: 100.0 mg/kg/injection, schedule: Q01DX004 (ip), vehicle: saline, higher = longer survival) is 120 % of control and 118 % of control; the T/C (endpoint: median survival time, dose: 200.0 mg/kg/injection, schedule: Q01DX004 (ip), vehicle: saline, higher = longer survival) is 109 % of control; the T/C (endpoint: median survival time, dose: 400.0 mg/kg/injection, schedule: Q01DX004 (ip), vehicle: saline, higher = longer survival) is 109 % of control; the T/C (endpoint: median survival time, dose: 800.0 mg/kg/injection, schedule: Q01DX004 (ip), vehicle: saline, higher = longer survival) was 116 % of control.
Take `C=C1C(=O)O[C@@H]2[C@H]3O[C@]3(C)CCC=C(C)CC[C@@H]12`: the T/C reads like this: (endpoint: median survival time, dose: 12.5 mg/kg/injection, schedule: Q01DX009 (ip), vehicle: Klucel (hydroxypropylcellulose) (HPC), higher = longer survival) 110 % of control; (endpoint: median survival time, dose: 25.0 mg/kg/injection, schedule: Q01DX009 (ip), vehicle: Klucel (hydroxypropylcellulose) (HPC), higher = longer survival) 97 % of control; (endpoint: median survival time, dose: 50.0 mg/kg/injection, schedule: Q01DX009 (ip), vehicle: Klucel (hydroxypropylcellulose) (HPC), higher = longer survival) 93 % of control.
Take `CC[CH2][Pb]([CH2]CC)([CH2]CC)[O]C(=O)C(Cl)(Cl)Cl`: the T/C runs as follows: (endpoint: median survival time, dose: 0.19 mg/kg/injection, schedule: Q01DX009 (ip), vehicle: saline with Tween-80, higher = longer survival) 101 % of control; (endpoint: median survival time, dose: 0.38 mg/kg/injection, schedule: Q01DX009 (ip), vehicle: saline with Tween-80, higher = longer survival) 94 % of control; (endpoint: median survival time, dose: 0.75 mg/kg/injection, schedule: Q01DX009 (ip), vehicle: saline with Tween-80, higher = longer survival) 90 % of control; (endpoint: median survival time, dose: 1.5 mg/kg/injection, schedule: Q01DX009 (ip), vehicle: saline with Tween-80, higher = longer survival) 103 % of control; (endpoint: median survival time, dose: 3.0 mg/kg/injection, schedule: Q01DX009 (ip), vehicle: saline with Tween-80, higher = longer survival) 106 % of control; (endpoint: median survival time, dose: 6.0 mg/kg/injection, schedule: Q01DX009 (ip), vehicle: saline with Tween-80, higher = longer survival) 106 % of control.
Take `CCCCOP(=O)(OCCCC)c1ccccc1`: the T/C is, setting by setting: (endpoint: mean tumor weight, dose: 104.0 mg/kg/injection, schedule: Q01DX011 (ip), vehicle: other, higher = larger tumour) 93 % of control; (endpoint: mean tumor weight, dose: 233.0 mg/kg/injection, schedule: Q01DX011 (ip), vehicle: other, higher = larger tumour) 66 % of control.
For `CCNC1=C(N2CC2)C(=O)C(NCC)=C(N2CC2)C1=O`, the T/C was 115 % of control (endpoint: median survival time, dose: 0.37 mg/kg/injection, schedule: Q01DX009 (ip), vehicle: saline, higher = longer survival) and 121 % of control (endpoint: median survival time, dose: 0.75 mg/kg/injection, schedule: Q01DX009 (ip), vehicle: saline, higher = longer survival).
Consider `CCCCCC[N+](CCCCCC)(CCCCCC)CCCCCC`, for which the T/C runs as follows: (endpoint: median survival time, dose: 0.75 mg/kg/injection, schedule: Q01DX009 (ip), vehicle: Klucel (hydroxypropylcellulose) (HPC), higher = longer survival) 110 % of control; (endpoint: median survival time, dose: 1.5 mg/kg/injection, schedule: Q01DX009 (ip), vehicle: Klucel (hydroxypropylcellulose) (HPC), higher = longer survival) 91 % of control; (endpoint: median survival time, dose: 3.0 mg/kg/injection, schedule: Q01DX009 (ip), vehicle: Klucel (hydroxypropylcellulose) (HPC), higher = longer survival) 102 % of control.
Regarding `CCC1=C(c2cc(Cl)c3ccccc3c2OCC(=O)O)OC(CC)(C(=O)c2cc(Cl)c3ccccc3c2OCC(=O)O)CC1` (stereo not given), the T/C is, setting by setting: (endpoint: mean tumor weight, dose: 2.3 mg/kg/injection, schedule: Q01DX011 (ip), vehicle: carboxymethylcellulose (CMC), higher = larger tumour) 82 % of control; (endpoint: mean tumor weight, dose: 3.5 mg/kg/injection, schedule: Q01DX011 (ip), vehicle: carboxymethylcellulose (CMC), higher = larger tumour) 76 % of control.
For `Cc1cc(O)c2cc3c(O)c(O)ccc3cc2c1`, the T/C is 86 % of control (endpoint: mean tumor weight, dose: 0.25 mg/kg/injection, schedule: Q01DX011 (ip), vehicle: saline, higher = larger tumour); 116 % of control (endpoint: mean tumor weight, dose: 0.5 mg/kg/injection, schedule: Q01DX011 (ip), vehicle: saline, higher = larger tumour); 62 % of control (endpoint: mean tumor weight, dose: 1.0 mg/kg/injection, schedule: Q01DX011 (ip), vehicle: saline, higher = larger tumour); 31 % of control and 52 % of control (endpoint: mean tumor weight, dose: 2.0 mg/kg/injection, schedule: Q01DX011 (ip), vehicle: saline, higher = larger tumour); 36 % of control (endpoint: mean tumor weight, dose: 4.0 mg/kg/injection, schedule: Q01DX011 (ip), vehicle: saline, higher = larger tumour).
In the case of `Nc1ncnc2c1ccn2C1OC(CO)C(O)C1O` (stereo not given), the T/C is, setting by setting: (endpoint: mean tumor weight, dose: 0.32 mg/kg/injection, schedule: Q01DX011 (ip), vehicle: saline, higher = larger tumour) 77 % of control; (endpoint: mean tumor weight, dose: 0.63 mg/kg/injection, schedule: Q01DX011 (ip), vehicle: saline, higher = larger tumour) 60 % of control; (endpoint: mean tumor weight, dose: 1.25 mg/kg/injection, schedule: Q01DX011 (ip), vehicle: saline, higher = larger tumour) 84 % of control; (endpoint: median survival time, dose: 0.25 mg/kg/injection, schedule: Q01DX011 (ip), vehicle: other, higher = longer survival) 98 % of control; (endpoint: median survival time, dose: 0.5 mg/kg/injection, schedule: Q01DX011 (ip), vehicle: other, higher = longer survival) 89 % of control; (endpoint: median survival time, dose: 1.0 mg/kg/injection, schedule: Q01DX011 (ip), vehicle: other, higher = longer survival) 110 % of control. Moreover, for the setting “endpoint: median survival time, dose: 2.0 mg/kg/injection, schedule: Q01DX011 (ip), vehicle: other, higher = longer survival”, the T/C is 101 % of control.
Take `CC1(C)N=C(N)N=C(N)N1c1ccc(F)c(C(F)(F)F)c1`: the T/C reads like this: (endpoint: median survival time, dose: 12.5 mg/kg/injection, schedule: Q01DX009 (ip), vehicle: saline, higher = longer survival) 121 % of control; (endpoint: median survival time, dose: 25.0 mg/kg/injection, schedule: Q01DX009 (ip), vehicle: saline, higher = longer survival) 111 % of control.
For `O=NN(CCF)C(=O)NC1CSCSC1`, the T/C (endpoint: median tumor weight (est.), dose: 14.0 mg/kg/injection, schedule: Q01DX001 (ip), vehicle: saline with Tween-80, higher = larger tumour) was 61 % of control; the T/C (endpoint: median tumor weight (est.), dose: 27.0 mg/kg/injection, schedule: Q01DX001 (ip), vehicle: saline with Tween-80, higher = larger tumour) was 45 % of control; the T/C (endpoint: median tumor weight (est.), dose: 41.0 mg/kg/injection, schedule: Q01DX001 (ip), vehicle: saline with Tween-80, higher = larger tumour) was 8 % of control.

Source of the values: PubChem BioAssay AID270 (DTP/NCI, 2004).
